# Laboratory results from ChEMBL document CHEMBL1158792, “Constituents of the leaves of Macaranga tanarius” (J Nat Prod, 2005).
# Calls of active or inactive are those of the source. No cut-off for these calls is given here.
# Columns and labels:
# [1] = target: T1, Prostaglandin G/H synthase 2 (Mus musculus, UniProt Q05769); experiment: (§1) Inhibition of COX2 in mouse lung fibroblast assessed as PGE2 production by radioimmunoassay
# T1 sequence (Q05769 whole entry): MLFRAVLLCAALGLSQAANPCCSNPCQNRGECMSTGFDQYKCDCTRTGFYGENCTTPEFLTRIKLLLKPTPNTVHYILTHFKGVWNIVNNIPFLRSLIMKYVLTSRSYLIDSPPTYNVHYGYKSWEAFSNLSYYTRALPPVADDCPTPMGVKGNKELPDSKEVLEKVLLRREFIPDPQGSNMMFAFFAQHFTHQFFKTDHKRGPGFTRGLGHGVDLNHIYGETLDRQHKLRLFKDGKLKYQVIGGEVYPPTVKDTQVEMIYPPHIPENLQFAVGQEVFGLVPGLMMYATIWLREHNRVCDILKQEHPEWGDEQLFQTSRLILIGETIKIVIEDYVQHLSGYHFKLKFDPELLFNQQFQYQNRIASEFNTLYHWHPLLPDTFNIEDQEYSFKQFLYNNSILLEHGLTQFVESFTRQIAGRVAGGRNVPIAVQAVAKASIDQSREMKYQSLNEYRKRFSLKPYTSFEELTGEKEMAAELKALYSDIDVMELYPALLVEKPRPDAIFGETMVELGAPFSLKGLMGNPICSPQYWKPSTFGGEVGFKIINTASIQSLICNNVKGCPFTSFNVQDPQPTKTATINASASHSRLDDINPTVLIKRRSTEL
# NCI-H187 = experiment: Cytotoxicity against human NCI-H187 cells; type: functional, cell-based
# [2] = tested on: Radical scavenging activity; experiment: Antioxidant activity assessed as DPPH radical scavenging activity by DPPH stable radical assay
# BC = experiment: (§2) Cytotoxicity against human BC cells; type: functional, cell-based
# KB = experiment: Cytotoxicity against human KB cells; type: functional, cell-based
# [3] = target: T2, Prostaglandin G/H synthase 2 (Mus musculus) (UniProt Q05769); experiment: as §1
# T2 sequence (whole entry): T1 sequence (Q05769 whole entry)
# Vero = experiment: Cytotoxicity against african green monkey Vero cells; type: cell-based; settings: Chlorocebus sabaeus
# [4] = as §2; type: functional, cell-based
IC50 [1] [µM],IC50 [2] [µM],Activity [3],SMILES,Activity (NCI-H187),Activity (BC),Activity (KB),IC50 (Vero) [µg/mL],IC50 [4] [µg/mL],IC50 (NCI-H187) [µg/mL],IC50 (KB) [µg/mL]
8.72,13,–,CC(C)=CCC/C(C)=C/Cc1c([C@@H]2CC(=O)c3c(O)cc(O)cc3O2)ccc(O)c1O [NYMPHAEOL B],inactive,inactive,inactive,–,–,–,–
–,15,inactive,CC(C)=CCC/C(C)=C/Cc1c([C@@H]2CC(=O)c3c(cc(O)c(CC=C(C)C)c3O)O2)ccc(O)c1O [NYMPHAEOL C],inactive,inactive,inactive,–,–,–,–
–,33,inactive,C=C(C)C(O)Cc1c(O)cc2c(c1O)C(=O)C[C@@H](c1ccc(O)c(O)c1C/C=C(\C)CCC=C(C)C)O2 (some centres undefined) [TANARIFLAVANONE C],inactive,inactive,inactive,–,–,–,–
–,20,–,C=C(C)C(O)CC/C(C)=C/Cc1c(O)cc2c(c1O)C(=O)C[C@@H](c1ccc(O)c(O)c1)O2 (some centres undefined) [TANARIFLAVANONE D],inactive,–,–,19.5,6.5,–,–
–,14,–,CC(C)=CCC/C(C)=C/Cc1c(O)cc2c(c1O)C(=O)C[C@@H](c1ccc(O)c(O)c1)O2 [NYMPHAEOL A],–,–,–,3.8,2.7,1.5,4.6

# The remaining lines, values behind:
SMILES,IC50 [1] [µM],IC50 [2] [µM],Activity [3],Activity (NCI-H187),Activity (BC),Activity (KB),IC50 (Vero) [µg/mL],IC50 [4] [µg/mL],IC50 (NCI-H187) [µg/mL],IC50 (KB) [µg/mL]
CC1=CC(=O)CC(C)(C)[C@@]1(O)/C=C/[C@@H](C)O,–,–,inactive,inactive,inactive,inactive,–,–,–,–
COc1cc(O)c2c(c1)O[C@H](c1ccc(OC)c(OC)c1C/C=C(\C)CCC=C(C)C)CC2=O,–,–,inactive,inactive,inactive,inactive,–,–,–,–
COc1cc2c(c(O)c1CC=C(C)C)C(=O)C[C@@H](c1ccc(OC)c(OC)c1C/C=C(\C)CCC=C(C)C)O2,–,599,inactive,inactive,inactive,inactive,–,–,–,–
COc1ccc([C@@H]2CC(=O)c3c(cc(OC)c(C/C=C(\C)CCC=C(C)C)c3O)O2)cc1OC,–,–,inactive,inactive,inactive,inactive,–,–,–,–
Cc1cc(C(C)(C)C)c(O)c(C(C)(C)C)c1 [BUTYLATED HYDROXYTOLUENE],–,30,–,–,–,–,–,–,–,–
COc1cc(O)c2c(c1)O[C@H](c1ccc(OC)c(O)c1C/C=C(\C)CCC=C(C)C)CC2=O,–,–,inactive,inactive,inactive,inactive,–,–,–,–
COc1ccc([C@@H]2CC(=O)c3c(cc(OC)c(CC=C(C)C)c3O)O2)c(C/C=C(\C)CCC=C(C)C)c1O,–,413,inactive,inactive,inactive,inactive,–,–,–,–
CC(C)=CCCC1(C)C=Cc2c([C@@H]3CC(=O)c4c(cc(O)c(CC=C(C)C)c4O)O3)ccc(O)c2O1 (some centres undefined),–,–,inactive,inactive,inactive,inactive,–,–,–,–
CC1=CC(=O)CC(C)(C)[C@@]1(O)CC[C@@H](C)O,–,–,inactive,inactive,inactive,inactive,–,–,–,–
